Target: T1, estrogen receptor (Homo sapiens, UniProt P03372)
T1 construct: endogenous in cells; host or cells: ECC-1 cells
T1 sequence (P03372 1-595): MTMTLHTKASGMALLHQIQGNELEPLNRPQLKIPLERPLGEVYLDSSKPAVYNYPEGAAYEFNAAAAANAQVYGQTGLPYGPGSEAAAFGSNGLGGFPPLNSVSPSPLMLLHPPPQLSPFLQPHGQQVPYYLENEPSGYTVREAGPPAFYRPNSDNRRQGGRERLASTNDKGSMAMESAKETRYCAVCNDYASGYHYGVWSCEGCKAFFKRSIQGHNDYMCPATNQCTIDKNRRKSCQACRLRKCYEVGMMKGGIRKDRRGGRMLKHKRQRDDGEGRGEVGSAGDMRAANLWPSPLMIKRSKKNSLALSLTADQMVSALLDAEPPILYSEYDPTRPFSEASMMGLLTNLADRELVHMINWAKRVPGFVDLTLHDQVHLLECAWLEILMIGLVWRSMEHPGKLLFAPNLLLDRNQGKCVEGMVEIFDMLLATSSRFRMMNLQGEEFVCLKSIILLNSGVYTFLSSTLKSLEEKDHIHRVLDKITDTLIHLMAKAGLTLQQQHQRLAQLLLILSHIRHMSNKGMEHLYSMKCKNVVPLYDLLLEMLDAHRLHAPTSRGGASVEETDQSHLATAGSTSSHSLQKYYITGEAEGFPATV
Assay: AP (alkaline phosphatase) assay in ECC-1 cells, agonist mode and antagonist mode
Assay type: cell-based
Settings: 3 days, absence of E2 (agonist mode) or 500 pM E2 (antagonist mode), AP activity normalized to 500 pM E2 alone
Method: ECC-1 cells were trypsinized and resuspended in hormone-depleted media and plated at a density of 15 k cells per well into a 96-well plate for at least 4 hours. Cells were treated with test compounds in the absence of E2 (for agonist mode) or in the presence of 500 pM E2 (for antagonist mode) for 3 days and plates were subsequently frozen at −80° C. Thawed plates were incubated with a chromogenic substrate of AP, p-nitrophenyl phosphate (Thermo Fisher Scientific), for 40 minutes at 42° C., and absorbances were read at 405 nm. AP activity was normalized to the activity of 500 pM E2 alone.
The compound numbers correspond to the compound numbers of Table 1 and 2. Compounds having an activity designated as “+” provided estrogen receptor agonism having (i) at least 80% increase in the E2-normalized signal in the AP assay (agonist mode) and (ii) no more than 80% reduction in the E2-normalized signal in the AP assay (antagonist mode). Compounds having an activity designated as “++” provided estrogen receptor antagonism having (i) between 10% and 80% increase in the E2-normalized signal in the AP assay (agonist mode) and (ii) between 10% and 80% reduction in the E2-normalized signal in the AP assay (antagonist mode).

Structure (SMILES) | Activity (estrogen receptor modulation, agonism and antagonism)
C[C@@H]1Cc2c([nH]c3ccccc23)[C@@H](c2ccc(O[C@@H]3CCN(CCF)C3)s2)N1CC(C)(C)F [Example I-17, (1S,3R)-1-[5-[(3R)-1-(2-fluoroethyl)pyrrolidin-3-yl]oxy-2-thienyl]-2-(2-fluoro-2-methyl-propyl)-3-methyl-1,3,4,9-tetrahydropyrido[3,4-b]indole] | + (estrogen receptor agonism having (i) at least 80% increase in the E2-normalized signal in the AP assay (agonist mode) and (ii) no more than 80% reduction in the E2-normalized signal in the AP assay (antagonist mode))
C[C@@H]1Cc2c([nH]c3ccccc23)[C@@H](c2ncc(OC3CN(CCCF)C3)s2)N1CC(F)F [Example I-18, 2-[(1S,3R)-2-(2,2-difluoroethyl)-3-methyl-1,3,4,9-tetrahydropyrido[3,4-b]indol-1-yl]-5-[1-(3-fluoropropyl)azetidin-3-yl]oxy-thiazole] | ++ (estrogen receptor antagonism having (i) between 10% and 80% increase in the E2-normalized signal in the AP assay (agonist mode) and (ii) between 10% and 80% reduction in the E2-normalized signal in the AP assay (antagonist mode))
C[C@@H]1Cc2c([nH]c3ccccc23)[C@@H](c2ccc(O[C@@H]3CCN(CCCF)C3)s2)N1CC(F)F [Example I-19, (1S,3R)-2-(2,2-difluoroethyl)-1-[5-[(3R)-1-(3-fluoropropyl)pyrrolidin-3-yl]oxy-2-thienyl]-3-methyl-1,3,4,9-tetrahydropyrido[3,4-b]indole] | +++ (estrogen receptor antagonism (i) with pIC50 greater than 7.5 and at least a 10% reduction in the E2-normalized signal in the AP assay (antagonist mode); and no more than 10% increase in E2-normalized signal in the AP assay (agonist mode))
C[C@@H]1Cc2c([nH]c3ccccc23)[C@@H](c2ccc(O[C@@H]3CCN(CCCF)C3)s2)N1CC(F)(F)F [Example I-20, (1S,3R)-1-[5-[(3R)-1-(3-fluoropropyl)pyrrolidin-3-yl]oxy-2-thienyl]-3-methyl-2-(2,2,2-trifluoroethyl)-1,3,4,9-tetrahydropyrido[3,4-b]indole] | ++ (estrogen receptor antagonism having (i) between 10% and 80% increase in the E2-normalized signal in the AP assay (agonist mode) and (ii) between 10% and 80% reduction in the E2-normalized signal in the AP assay (antagonist mode))
C[C@@H]1Cc2c([nH]c3ccccc23)[C@@H](c2ccc(OC3CN(CCCF)C3)s2)N1CC(F)(F)F [Example I-21, (1S,3R)-1-[5-[1-(3-fluoropropyl)azetidin-3-yl]oxy-2-thienyl]-3-methyl-2-(2,2,2-trifluoroethyl)-1,3,4,9-tetrahydropyrido[3,4-b]indole] | ++ (estrogen receptor antagonism having (i) between 10% and 80% increase in the E2-normalized signal in the AP assay (agonist mode) and (ii) between 10% and 80% reduction in the E2-normalized signal in the AP assay (antagonist mode))
C[C@@H]1Cc2c([nH]c3ccccc23)[C@@H](c2ncc(OC3CN(CCCF)C3)s2)N1CC(F)(F)CO [Example I-22, 2,2-difluoro-3-[(1S,3R)-1-[5-[1-(3-fluoropropyl)azetidin-3-yl]oxythiazol-2-yl]-3-methyl-1,3,4,9-tetrahydropyrido[3,4-b]indol-2-yl]propan-1-ol] | ++ (estrogen receptor antagonism having (i) between 10% and 80% increase in the E2-normalized signal in the AP assay (agonist mode) and (ii) between 10% and 80% reduction in the E2-normalized signal in the AP assay (antagonist mode))
C[C@@H]1Cc2c([nH]c3ccccc23)[C@@H](c2cnc(O[C@@H]3CCN(CCCF)C3)s2)N1CC(C)(C)F [Example I-23, 5-[(1S,3R)-2-(2-fluoro-2-methyl-propyl)-3-methyl-1,3,4,9-tetrahydropyrido[3,4-b]indol-1-yl]-2-[(3R)-1-(3-fluoropropyl)pyrrolidin-3-yl]oxy-thiazole] | +++ (estrogen receptor antagonism (i) with pIC50 greater than 7.5 and at least a 10% reduction in the E2-normalized signal in the AP assay (antagonist mode); and no more than 10% increase in E2-normalized signal in the AP assay (agonist mode))
C[C@@H]1Cc2c([nH]c3ccccc23)[C@@H](c2ncc(O[C@@H]3CCN(CCCF)C3)s2)N1CC(F)(F)CO [Example I-24, 2,2-difluoro-3-[(1S,3R)-1-[5-[(3R)-1-(3-fluoropropyl)pyrrolidin-3-yl]oxythiazol-2-yl]-3-methyl-1,3,4,9-tetrahydropyrido[3,4-b]indol-2-yl]propan-1-ol] | ++ (estrogen receptor antagonism having (i) between 10% and 80% increase in the E2-normalized signal in the AP assay (agonist mode) and (ii) between 10% and 80% reduction in the E2-normalized signal in the AP assay (antagonist mode))
C[C@@H]1Cc2c([nH]c3ccccc23)[C@@H](c2sc(OC3CN(CCCF)C3)cc2F)N1CC(F)(F)CO [Example I-26, 2,2-difluoro-3-[(1S,3R)-1-[3-fluoro-5-[1-(3-fluoropropyl)azetidin-3-yl]oxy-2-thienyl]-3-methyl-1,3,4,9-tetrahydropyrido[3,4-b]indol-2-yl]propan-1-ol] | +++ (estrogen receptor antagonism (i) with pIC50 greater than 7.5 and at least a 10% reduction in the E2-normalized signal in the AP assay (antagonist mode); and no more than 10% increase in E2-normalized signal in the AP assay (agonist mode))
C[C@@H]1Cc2c([nH]c3ccccc23)[C@@H](c2sc(O[C@@H]3CCN(CCCF)C3)cc2F)N1CC(F)(F)CO [Example I-27, 2,2-difluoro-3-[(1S,3R)-1-[3-fluoro-5-[(3R)-1-(3-fluoropropyl)pyrrolidin-3-yl]oxy-2-thienyl]-3-methyl-1,3,4,9-tetrahydropyrido[3,4-b]indol-2-yl]propan-1-ol] | +++ (estrogen receptor antagonism (i) with pIC50 greater than 7.5 and at least a 10% reduction in the E2-normalized signal in the AP assay (antagonist mode); and no more than 10% increase in E2-normalized signal in the AP assay (agonist mode))
C[C@@H]1Cc2c([nH]c3ccccc23)[C@@H](c2cnc(O[C@@H]3CCN(CCCF)C3)s2)N1CC(F)(F)CO [Example I-28, 2,2-difluoro-3-[(1S,3R)-1-[2-[(3R)-1-(3-fluoropropyl)pyrrolidin-3-yl]oxythiazol-5-yl]-3-methyl-1,3,4,9-tetrahydropyrido[3,4-b]indol-2-yl]propan-1-ol] | +++ (estrogen receptor antagonism (i) with pIC50 greater than 7.5 and at least a 10% reduction in the E2-normalized signal in the AP assay (antagonist mode); and no more than 10% increase in E2-normalized signal in the AP assay (agonist mode))
C[C@@H]1Cc2c([nH]c3ccccc23)[C@@H](c2cnc(O[C@@H]3C[C@H](C)N(CCCF)C3)s2)N1CC(F)(F)CO [Example I-29, 2,2-difluoro-3-((1S,3R)-1-(2-(((3R,5S)-1-(3-fluoropropyl)-5-methylpyrrolidin-3-yl)oxy)thiazol-5-yl)-3-methyl-1,3,4,9-tetrahydro-2H-pyrido[3,4-b]indol-2-yl)propan-1-ol] | + (estrogen receptor agonism having (i) at least 80% increase in the E2-normalized signal in the AP assay (agonist mode) and (ii) no more than 80% reduction in the E2-normalized signal in the AP assay (antagonist mode))
C[C@@H]1C[C@@H](Oc2ncc([C@@H]3c4[nH]c5ccccc5c4C[C@@H](C)N3CC(F)(F)CO)s2)CN1CCCF [Example I-30, 2,2-difluoro-3-[(1S,3R)-1-[2-[(3R,5R)-1-(3-fluoropropyl)-5-methyl-pyrrolidin-3-yl]oxythiazol-5-yl]-3-methyl-1,3,4,9-tetrahydropyrido[3,4-b]indol-2-yl]propan-1-ol] | + (estrogen receptor agonism having (i) at least 80% increase in the E2-normalized signal in the AP assay (agonist mode) and (ii) no more than 80% reduction in the E2-normalized signal in the AP assay (antagonist mode))
C[C@@H]1Cc2c([nH]c3ccccc23)[C@@H](c2cnc(OC3CN(CCCF)C3)s2)N1CC(F)(F)CO [Example I-31, 2,2-difluoro-3-[(1S,3R)-1-[2-[1-(3-fluoropropyl)azetidin-3-yl]oxythiazol-5-yl]-3-methyl-1,3,4,9-tetrahydropyrido[3,4-b]indol-2-yl]propan-1-ol] | ++ (estrogen receptor antagonism having (i) between 10% and 80% increase in the E2-normalized signal in the AP assay (agonist mode) and (ii) between 10% and 80% reduction in the E2-normalized signal in the AP assay (antagonist mode))

Source: US20260103461A1, “ESTROGEN RECEPTOR MODULATORS AND USES THEREOF” (Olema Pharmaceuticals, Inc., priority 2022, published 2026)
